Values belong to the compound of their own block, whether it stands above or below them. Residues, ends and D or L forms follow the SMILES beside them.
Assays:
[1] = test system: MELOE-1 specific CD4 T cell clones; assay: Processing of epitopes by autologous DC loaded with antigen; TNF-α production of T cell clones; type: cell-based, human
Method: FIG. 4: Class II epitopes are naturally processed from MELOE-1 whole antigen. Autologous DC, were loaded (before or after fixation) with MELOE-12-46 (1 μM) or, as a negative control, with Melan-A16-40L peptide (1 μM), and matured. T cell clones were then stimulated with DC at a ratio 1:1, during 5 h in presence of Brefeldin A, then stained with APC-conjugated anti-CD3 mAb, fixed with 4% paraformaldehyde, labeled with PE-conjugated anti-TNF-α mAb and analyzed by flow cytometry. Histograms illustrated the % of TNF-α producing cells among CD3 positive T cells.
Monocytes were purified from PBMC of healthy donors by a CD14-enrichment kit, according the recommendations of the supplier (Stem Cell, France). Immature dendritic cells (iDC) were generated by culturing monocytes in RPMI supplemented with 20 mg/mL of human albumin, 1000 IU/mL of GM-CSF and 200 IU/mL of IL-4 for 5 days. Then, iDC were pulsed with the whole MELOE-1 (1 μM) protein or the modified Melan-A16-40 A27L as negative control (1 μM) and matured with 20 ng/mL of TNF-α and 50 μg/mL of PolyI:C for 4 hours at 37° C. Finally they were fixed for 1 minute with PBS/0.015% glutaraldehyde. Alternatively, iDC were first matured, fixed and then pulsed with antigens at the same concentration.
Alternatively, MELOE-1 specific CD4+ T cell clones were stimulated by autologous MELOE-1 loaded and matured DC at a 1:1 ratio. […]

[2] = test system: DRβ1*0101 restricted T cell clone 5F9; assay: Minimal peptides recognized by CD4 T cell clone (peptide titration, TNF-α production); type: cell-based, human; conditions: 5F9 T cell clone; 13-mer peptides
Method: FIG. 5: Minimal peptides recognized by MELOE-1 specific CD4 T cell clones. MELOE-1 specific CD4 T cell clones were incubated with various concentrations of the indicated peptides during 5 hours in presence of Brefeldin A. TNF-α production was assessed by intracellular labeling with an anti-TNF-α specific antibody. The core peptide sequence is indicated in bold on each figure panel, and black circles illustrate the best fitting peptide.
Our T cell clones were reactive against 20-mer peptides that are probably not the exact peptides naturally processed. In order to formally identify the minimal recognized epitopes, we tested shorter peptides derived from each of the MELOE-1 recognized regions, chosen on the basis of the core peptide sequence supposed to be recognized by the T cell clones (indicated in bold on FIG. 5).
Three shorter peptides were better recognized by the DQ2-restricted 9C12 T cell clone, the shortest one being MELOE-17-19 (13-mer), recognized with an EC50 of 100 nM. The deletion of the two amino acids in C-term strongly reduces T cell clone recognition. […] Nonetheless all of these clones recognized a series of shortened peptides, thus we cannot formally assess that the shortest ones will be the exact peptides naturally presented on class II molecules.

[3] = test system: DRβ1*1101 restricted T cell clone 1A5; conditions: 5 h
[4] = test system: DQ2-restricted T cell clone 4E2
[5] = test system: DQ2-restricted 9C12 T cell clone; conditions: 5 h

Compound: MSCVGYPDEATSREQFLPSEGAACPPWHPSERISSTLNDECWPASL [MELOE-1, MELOE-1 whole antigen (46 amino acids)]
recognition by specific CD4 T cell clones of DC loaded after fixation ([1]; autologous DC loaded after DC fixation): only a weak recognition | reactivity of the four T cell clones against loaded autologous DC ([1]; iDC loaded with 1 μM in serum-free medium, matured, then fixed): reactive

Compound: SREQFLPSEGAAC [MELOE-112-24]
recognition by T cell clone [2]: optimal shorter peptides

EC50 [3]: 100 nM
Compound: CC(C)C[C@H](NC(=O)[C@H](Cc1ccccc1)NC(=O)[C@@H](N)CCC(N)=O)C(=O)N1CCC[C@H]1C(=O)N[C@@H](CO)C(=O)N[C@@H](CCC(=O)O)C(=O)NCC(=O)N[C@@H](C)C(=O)N[C@@H](C)C(=O)N[C@@H](CS)C(=O)N1CCC[C@H]1C(=O)N1CCC[C@H]1C(=O)N[C@@H](Cc1c[nH]c2ccccc12)C(=O)O [MELOE-115-27, QFLPSEGAACPPW] (H-QFLPSEGAACPPW-OH; N-terminus and C-terminus assumed)

Compound: RISSTLNDECWPA [32-44]
recognition by T cell clone ([4]; 4E2 T cell clone, compared with 31-44): recognized to a lower extent

EC50 [5]: 100 nM
Compound: CC(C)C[C@H](NC(=O)[C@H](Cc1ccccc1)NC(=O)[C@H](CCC(N)=O)NC(=O)[C@H](CCC(=O)O)NC(=O)[C@H](CCCNC(=N)N)NC(=O)[C@H](CO)NC(=O)[C@@H](NC(=O)[C@H](C)NC(=O)[C@H](CCC(=O)O)NC(=O)[C@H](CC(=O)O)NC(=O)[C@@H]1CCCN1)[C@@H](C)O)C(=O)N1CCC[C@H]1C(=O)N[C@@H](CO)C(=O)O [MELOE-17-19, PDEATSREQFLPS] (H-PDEATSREQFLPS-OH; N-terminus and C-terminus assumed)

EC50 ([4]; 5 h): 100 nM
Compound: CC[C@H](C)[C@H](NC(=O)[C@H](CCCNC(=N)N)NC(=O)[C@@H](N)CCC(=O)O)C(=O)N[C@@H](CO)C(=O)N[C@@H](CO)C(=O)N[C@H](C(=O)N[C@@H](CC(C)C)C(=O)N[C@@H](CC(N)=O)C(=O)N[C@@H](CC(=O)O)C(=O)N[C@@H](CCC(=O)O)C(=O)N[C@@H](CS)C(=O)N[C@@H](Cc1c[nH]c2ccccc12)C(=O)N1CCC[C@H]1C(=O)N[C@@H](C)C(=O)O)[C@@H](C)O [31-44, ERISSTLNDECWPA] (H-ERISSTLNDECWPA-OH; N-terminus and C-terminus assumed)

Compound: TSREQFLPSEGAA [MELOE-111-23]
recognition by T cell clone [2]: optimal shorter peptides

Reference: patent publication US9475841B2, “Melanoma antigen peptide and uses thereof” (INSERM (INSTITUT NATIONAL DE LA SANTE ET DE LA RECHERCHE …, priority 2012, dated 2016)
